Common to all, as to assay type: binding
Assay [1] concerns the target T1, MadR (mycolic acid desaturase regulator, Rv0472c) (Mycobacterium tuberculosis, UniProt P9WMD9). In words: intrinsic tryptophan fluorescence quenching (binds, but does not release promoter DNA).
The target in assay [2] is T1, MadR (mycolic acid desaturase regulator, Rv0472c). In words: intrinsic tryptophan fluorescence quenching; EMSA shows release from desA1/desA2 promoters.
Assay [3] shares this target. The experiment in a line: intrinsic tryptophan fluorescence quenching.

T1 sequence (P9WMD9 whole entry, looked up): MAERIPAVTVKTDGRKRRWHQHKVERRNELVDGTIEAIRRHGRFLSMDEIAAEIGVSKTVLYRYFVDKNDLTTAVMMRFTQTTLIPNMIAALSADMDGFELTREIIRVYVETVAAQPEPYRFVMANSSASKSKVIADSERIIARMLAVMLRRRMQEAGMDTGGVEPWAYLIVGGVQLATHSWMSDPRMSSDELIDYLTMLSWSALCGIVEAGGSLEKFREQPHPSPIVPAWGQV

`CCCCC/C=C\C/C=C\CCCCCCCC(=O)SCCNC(=O)CCNC(=O)[C@H](O)C(C)(C)COP(=O)(O)OP(=O)(O)OC[C@H]1O[C@@H](n2cnc3c(N)ncnc32)[C@H](O)[C@@H]1OP(=O)(O)O` [C18:2-CoA, linoleoyl-CoA] came in with a Kd in assay [1] of 9.88 µM.
In assay [2], `CCCCCCCCCCCCCCCCCC(=O)SCCNC(=O)CCNC(=O)[C@H](O)C(C)(C)COP(=O)(O)OP(=O)(O)OC[C@H]1O[C@@H](n2cnc3c(N)ncnc32)[C@H](O)[C@@H]1OP(=O)(O)O` [C18:0-CoA, stearoyl-CoA] displayed a Kd of 7.73 µM.
Same read-out and setting: the result for `CCCCCCCCCCCCCCCCCCCCCCCC(=O)SCCNC(=O)CCNC(=O)[C@H](O)C(C)(C)COP(=O)(O)OP(=O)(O)OC[C@H]1O[C@@H](n2cnc3c(N)ncnc32)[C@H](O)[C@@H]1OP(=O)(O)O` [C24:0-CoA, lignoceroyl-CoA] reads 18.1 µM.
The compound `CCCCCCCCCCCCCC(=O)SCCNC(=O)CCNC(=O)[C@H](O)C(C)(C)COP(=O)(O)OP(=O)(O)OC[C@H]1O[C@@H](n2cnc3c(N)ncnc32)[C@H](O)[C@@H]1OP(=O)(O)O` [C14:0-CoA, myristoyl-CoA] registered a Kd in assay [3] of 12.4 µM.
Compound `CCCCCCCCCCCCCCCC(=O)SCCNC(=O)CCNC(=O)[C@H](O)C(C)(C)COP(=O)(O)OP(=O)(O)OC[C@H]1O[C@@H](n2cnc3c(N)ncnc32)[C@H](O)[C@@H]1OP(=O)(O)O` [C16:0-CoA, palmitoyl-CoA] displayed a Kd in assay [2] of 10.7 µM.
`CCCCCCCC/C=C\CCCCCCCC(=O)SCCNC(=O)CCNC(=O)[C@H](O)C(C)(C)COP(=O)(O)OP(=O)(O)OC[C@H]1O[C@@H](n2cnc3c(N)ncnc32)[C@H](O)[C@@H]1OP(=O)(O)O` [C18:1-CoA, oleoyl-CoA] came in with a Kd in assay [1] of 9.55 µM.

Source of the values: PMC8872791, “MadR mediates acyl CoA-dependent regulation of mycolic acid desaturation in mycobacteria” (Proceedings of the National Academy of Sciences of the …, 2022).
